From BindingDB's records for doi:10.1016/j.ejmech.2017.06.016 (University of Science and Technology of China, 2017)

target: T1, Cytoplasmic tyrosine-protein kinase BMX (Homo sapiens, UniProt P51813); assay: ChEBML_1715921
T1 sequence (P51813 whole entry): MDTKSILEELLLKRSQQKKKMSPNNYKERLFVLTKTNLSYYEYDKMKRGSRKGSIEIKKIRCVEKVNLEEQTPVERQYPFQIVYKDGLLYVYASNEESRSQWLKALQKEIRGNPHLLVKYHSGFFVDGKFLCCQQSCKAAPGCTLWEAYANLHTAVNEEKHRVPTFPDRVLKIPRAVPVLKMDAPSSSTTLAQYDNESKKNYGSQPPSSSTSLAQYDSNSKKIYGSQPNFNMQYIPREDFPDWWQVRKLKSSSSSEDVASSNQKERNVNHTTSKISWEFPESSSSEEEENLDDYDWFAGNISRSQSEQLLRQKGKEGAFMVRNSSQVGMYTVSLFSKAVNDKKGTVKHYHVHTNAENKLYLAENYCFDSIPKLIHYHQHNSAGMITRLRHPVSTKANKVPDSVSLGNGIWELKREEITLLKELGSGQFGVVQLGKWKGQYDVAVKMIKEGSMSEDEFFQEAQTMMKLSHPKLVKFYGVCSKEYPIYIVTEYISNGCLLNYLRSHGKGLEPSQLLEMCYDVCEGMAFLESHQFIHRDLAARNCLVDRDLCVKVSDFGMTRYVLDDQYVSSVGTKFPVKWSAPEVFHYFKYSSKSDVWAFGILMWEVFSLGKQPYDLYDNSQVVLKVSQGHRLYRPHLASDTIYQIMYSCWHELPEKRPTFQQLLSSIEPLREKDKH
Method: Inhibition of recombinant full length His-tagged human BMX expressed in baculovirus expression system using poly (4:1 Glu, Tyr) as substrate preincubated for 1 hr followed by substrate addition measured after 1 hr by ADP-glo assay

Compound | IC50
C=CC(=O)Nc1cccc(-n2c(=O)ccc3cnc4ccc(-c5ccc(N)nc5)cc4c32)c1 [QL-X-132] | 0.016 µM
C=CC(=O)Nc1cc(-n2c(=O)ccc3cnc4ccc(-c5ccsc5)cc4c32)ccc1C [QL-XI-75] | 0.02 µM
C=CC(=O)Nc1cc(-n2c(=O)ccc3cnc4ccc(-c5cnc6ccccc6c5)cc4c32)ccc1C [QL-XII-54] | 0.019 µM

These reach a lower IC50. Values come first.

IC50 | Compound
0.011 µM | C=CC(=O)Nc1cccc(-n2c(=O)ccc3cnc4ccc(-c5cn[nH]c5)cc4c32)c1 [QL-XI-13]
0.013 µM | C=CC(=O)N1CCc2ccc(-n3c(=O)ccc4cnc5ccc(-c6ccc(N)nc6)cc5c43)cc21 [QL-XII-45]
0.013 µM | C=CC(=O)Nc1cc(-n2c(=O)ccc3cnc4ccc(-c5ccc6c(c5)OCCO6)cc4c32)ccc1C [QL-XII-115]
